In PubChem BioAssay (NCI):
“And” between values parts separate entries of the source, which are not always exact repeats. Identical values can stand only once.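 Step 1: Grow cells in 96-well plates. Step 2: Expose to compound for 48 hours at 5 concentrations. Step 3: Interpolate endpoints linearly; if unreached, use highest concentration. GI50: concentration for 50% inhibition of growth. TGI denotes the concentration required for complete inhibition of growth.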

Assays:
Assay in all cases: NCI-60 cell line screen, 48 h
[1] = tested on: BT-549 breast
[2] = tested on: HCC-2998 colon
[3] = tested on: HCT-116 colon
[4] = tested on: HOP-92 NSCLC
[5] = tested on: HT29 colon
[6] = tested on: MALME-3M melanoma
[7] = tested on: OVCAR-5 ovarian
[8] = tested on: PC-3 prostate
[9] = tested on: SF-539 CNS
[10] = tested on: SK-MEL-28 melanoma

Compound: Cc1ccc(NC(=O)c2ccnc(N3CCCC3)c2)cc1-c1ccc(C(=O)NCC2CC2)cc1
- GI50 [1]: > 25 µM
- TGI [1]: > 25 µM
- GI50 [2]: > 25000 nM
- TGI [2]: > 25 µM
- GI50 [3]: > 23800 nM
- TGI [3]: > 25 µM
- GI50 [4]: 8.2 µM
- TGI [4]: > 25 µM
- GI50 [5]: > 25000 nM
- TGI [5]: > 25 µM
- GI50 [6]: > 25 µM
- TGI [6]: > 25 µM
- GI50 [7]: > 25000 nM
- TGI [7]: > 25 µM
- GI50 [8]: > 25000 nM
- TGI [8]: > 25 µM
- GI50 [9]: > 25000 nM
- TGI [9]: > 25 µM
- GI50 [10]: > 25000 nM
- TGI [10]: > 25 µM

Compound: CC(C)(O)[C@H]1[C@@H]2OC(=O)[C@H]1[C@]1(O)C[C@H]3OC34C(=O)O[C@H]2[C@@]41C (some centres not stated) (tested in a mixture with another compound)
- TGI [1]: > 100 µM
- TGI [2]: > 100 µM
- TGI [3]: > 100 µM
- TGI [4]: > 100 µM
- TGI [5]: > 100 µM
- TGI [6]: > 100 µM
- TGI [7]: > 100 µM
- TGI [8]: > 100 µM
- TGI [9]: > 100 µM
- TGI [10]: > 100 µM

Compound: O=C1C=CC2(C=C1)CCN=c1c(O)c3c(c(O)c12)=NC=N3
- GI50 [1]: 18.1 µM and > 100 µM
- TGI [1]: 32.4 µM and > 100 µM
- GI50 [2]: 18500 nM and > 100000 nM
- TGI [2]: 32.6 µM and > 100 µM
- TGI [3]: 22.5 µM and > 100 µM
- GI50 [4]: 14.8 µM and > 100 µM
- TGI [4]: 28.9 µM and > 100 µM
- GI50 [5]: 20300 nM and > 100000 nM
- TGI [5]: 47.3 µM and > 100 µM
- TGI [6]: 4.42 µM
- GI50 [7]: 22400 nM and > 100000 nM
- TGI [7]: 37.4 µM and > 100 µM
- GI50 [8]: 10100 nM and > 100000 nM
- TGI [8]: 35 µM and > 100 µM
- GI50 [9]: 13800 nM and > 100000 nM
- TGI [9]: 26.9 µM and > 100 µM
- GI50 [10]: 15600 nM and > 100000 nM
- TGI [10]: 29.4 µM and > 100 µM

Compound: COc1cccc2c1c1nc3cc(C)c(C)cc3nc1n2CCN(C)C
- GI50 [1]: 2.36 µM
- TGI [1]: 10.2 µM
- GI50 [2]: 1420 nM
- TGI [2]: 3.65 µM
- GI50 [3]: 426 nM
- TGI [3]: 10.3 µM
- GI50 [4]: 1.13 µM
- TGI [4]: 6.73 µM
- GI50 [5]: 1680 nM
- TGI [5]: 10.7 µM
- GI50 [6]: 1.14 µM
- TGI [6]: 2.62 µM
- GI50 [7]: 2400 nM
- TGI [7]: 9.48 µM
- GI50 [8]: 1730 nM
- TGI [8]: 11.6 µM
- GI50 [9]: 1920 nM
- TGI [9]: 5.48 µM
- GI50 [10]: 1940 nM
- TGI [10]: 4.23 µM

Compound: CC1(C)C2CCC13C(=O)C1OC3(C2)C2C(=O)c3c(O)ccc(O)c3C(=O)C12 (configuration not stated)
- GI50 [1]: > 70.3 µM
- TGI [1]: > 92.2 µM
- GI50 [2]: 42900 nM
- TGI [2]: > 100 µM
- GI50 [3]: 34900 nM
- TGI [3]: > 100 µM
- GI50 [4]: 17.8 µM
- TGI [4]: 46.8 µM
- GI50 [5]: 34100 nM
- TGI [5]: > 83.4 µM
- GI50 [6]: 18.3 µM
- TGI [6]: 50.6 µM
- GI50 [7]: 38300 nM
- TGI [7]: > 100 µM
- GI50 [8]: 30800 nM
- TGI [8]: 98.5 µM
- GI50 [9]: 48000 nM
- TGI [9]: > 100 µM
- GI50 [10]: 36000 nM
- TGI [10]: > 100 µM

Compound: Clc1ccc(CO/N=C(\Cn2ccnc2)c2ccc(Cl)cc2Cl)c(Cl)c1
- GI50 [1]: 1.97 µM
- TGI [1]: 3.61 µM
- GI50 [2]: 1730 nM
- TGI [2]: 3.42 µM
- GI50 [3]: 1500 nM
- TGI [3]: 3.19 µM
- GI50 [4]: 1.15 µM
- TGI [4]: 2.53 µM
- GI50 [5]: 1650 nM
- TGI [5]: 3.33 µM
- GI50 [6]: 1.66 µM
- TGI [6]: 3.36 µM
- GI50 [7]: 1670 nM
- TGI [7]: 3.26 µM
- GI50 [8]: 1270 nM
- TGI [8]: 2.72 µM
- GI50 [9]: 1860 nM
- TGI [9]: 3.34 µM
- GI50 [10]: 1670 nM
- TGI [10]: 3.07 µM

Compound: O=C1/C(=C/C(Cl)=C/c2ccccc2)SC(=S)N1CCc1ccc(O)cc1
- GI50 [1]: 3.44 µM
- TGI [1]: > 100 µM
- GI50 [2]: 1910 nM
- TGI [2]: 3.72 µM
- GI50 [3]: 1010 nM
- TGI [3]: 3.55 µM
- GI50 [4]: 3.18 µM
- TGI [4]: 21.6 µM
- GI50 [5]: 2110 nM
- TGI [5]: 5.57 µM
- GI50 [6]: 1.44 µM
- TGI [6]: 3 µM
- GI50 [7]: 2020 nM
- TGI [7]: 3.91 µM
- GI50 [8]: 2100 nM
- TGI [8]: 7.42 µM
- GI50 [9]: 1720 nM
- TGI [9]: 3.52 µM
- GI50 [10]: 1830 nM
- TGI [10]: 3.93 µM

Compound: O=C(Cn1ccnc1[N+](=O)[O-])NCC(F)(F)C(F)(F)F
- GI50 [1]: > 100 µM
- TGI [1]: > 100 µM
- GI50 [2]: > 100000 nM
- TGI [2]: > 100 µM
- GI50 [3]: > 100000 nM
- TGI [3]: > 100 µM
- GI50 [4]: > 100 µM
- TGI [4]: > 100 µM
- GI50 [5]: > 100000 nM
- TGI [5]: > 100 µM
- GI50 [6]: > 100 µM
- TGI [6]: > 100 µM
- GI50 [7]: > 100000 nM
- TGI [7]: > 100 µM
- GI50 [8]: > 100000 nM
- TGI [8]: > 100 µM
- GI50 [9]: > 100000 nM
- TGI [9]: > 100 µM
- GI50 [10]: > 100000 nM
- TGI [10]: > 100 µM

Compound: CCNc1nc(N2CC(=O)Nc3cc(OC)ccc32)c2ccccc2n1
- GI50 [1]: 0.00237 µM
- TGI [1]: 3.91 µM
- GI50 [2]: 0.614 nM
- GI50 [3]: 0.361 nM
- TGI [3]: > 100 µM
- GI50 [4]: 1.26 µM
- TGI [4]: 9.69 µM
- GI50 [5]: 0.334 nM
- TGI [5]: 0.01 µM
- GI50 [6]: 7.57 µM
- TGI [6]: > 100 µM
- GI50 [7]: 10.7 nM
- TGI [7]: > 100 µM
- GI50 [8]: 0.58 nM
- TGI [8]: > 100 µM
- GI50 [9]: 1.1 nM
- TGI [9]: 0.00655 µM
- GI50 [10]: 1700 nM
- TGI [10]: > 100 µM
